The values that follow come from US4957940A, “Bicyclo heptane and bicyclo octane substituted inhibitors of cholesterol synthesis” (Warner-Lambert Company, priority 1989, dated 1990).

Broadly, the IC50 is the concentration at which inhibition is half-maximal.

The subject of this test is biosynthesis of cholesterol. Put plainly: CSI screen: inhibition of cholesterol biosynthesis (14C-acetate incorporation into nonsaponifiable lipid by rat liver homogenate). Format: biochemical. The following applies: 50% inhibition of sterol synthesis over a one-hour period. On the procedure: The ability of compounds of the present invention to inhibit the biosynthesis of cholesterol was measured by a method (designated CSI screen) which utilizes the procedure described by R. E. Dugan, et al, Archiv. Biochem. Biophys., (1972), 152, 21-27. In this method, the level of HMG-CoA enzyme activity in standard laboratory rats is increased by feeding the rats a chow diet containing 5% cholestryramine for four days, after which the rats are sacrificed.
The rat livers are homogenized, and the incorporation of […] into nonsaponifiable lipid by the rat liver homogenate is measured. The micromolar concentration of compound required for 50% inhibition of sterol synthesis over a one-hour period is measured, and expressed as an IC50 value.

The structures appear in SMILES notation.

`C=C1CC2(C)CC1C(c1ccccc1)=C2/C=C/[C@@H]1C[C@@H](O)CC(=O)O1` (relative stereo) yielded an IC50 of 440 nM. In other words, the sub-micromolar range.
